Assay results taken from article PMC12718135, “Non-catalytic UBL2 domain directs deubiquitinase USP11 toward K48-linked polyubiquitin chains” (The Journal of Biological Chemistry, 2025).

Key:
USP11-D1D2 = target: T1, USP11-D1D2 (Homo sapiens, UniProt P51784); assay: SDS-gel deubiquitination of K63-polyubiquitinated Rsp5 (fluorescein-Ub); format: biochemical; conditions: 1 μM enzyme, 25 mM Tris pH 7.5, 200 mM NaCl, 3 mM βME
T1 construct: catalytic core only: D1 and D2 segments joined by five residues (ASTSK), UBL2-IDR insert, DUSP and UBL1 removed; E. coli BL21 RIL, N-terminal His6 tag cut with TEV

USP11ΔDUSP = target: T2, USP11ΔDUSP (Homo sapiens, UniProt P51784); assay: SDS-gel deubiquitination of K48- and K63-polyubiquitinated Rsp5; format: biochemical; conditions: K48- and K63-linked poly-ubiquitinated Rsp5 substrates
T2 construct: gene USP11; N-terminal DUSP domain removed; keeps UBL1, D1, UBL2-IDR, D2
T2 sequence (P51784 185-963 limits assumed, stated change not applied): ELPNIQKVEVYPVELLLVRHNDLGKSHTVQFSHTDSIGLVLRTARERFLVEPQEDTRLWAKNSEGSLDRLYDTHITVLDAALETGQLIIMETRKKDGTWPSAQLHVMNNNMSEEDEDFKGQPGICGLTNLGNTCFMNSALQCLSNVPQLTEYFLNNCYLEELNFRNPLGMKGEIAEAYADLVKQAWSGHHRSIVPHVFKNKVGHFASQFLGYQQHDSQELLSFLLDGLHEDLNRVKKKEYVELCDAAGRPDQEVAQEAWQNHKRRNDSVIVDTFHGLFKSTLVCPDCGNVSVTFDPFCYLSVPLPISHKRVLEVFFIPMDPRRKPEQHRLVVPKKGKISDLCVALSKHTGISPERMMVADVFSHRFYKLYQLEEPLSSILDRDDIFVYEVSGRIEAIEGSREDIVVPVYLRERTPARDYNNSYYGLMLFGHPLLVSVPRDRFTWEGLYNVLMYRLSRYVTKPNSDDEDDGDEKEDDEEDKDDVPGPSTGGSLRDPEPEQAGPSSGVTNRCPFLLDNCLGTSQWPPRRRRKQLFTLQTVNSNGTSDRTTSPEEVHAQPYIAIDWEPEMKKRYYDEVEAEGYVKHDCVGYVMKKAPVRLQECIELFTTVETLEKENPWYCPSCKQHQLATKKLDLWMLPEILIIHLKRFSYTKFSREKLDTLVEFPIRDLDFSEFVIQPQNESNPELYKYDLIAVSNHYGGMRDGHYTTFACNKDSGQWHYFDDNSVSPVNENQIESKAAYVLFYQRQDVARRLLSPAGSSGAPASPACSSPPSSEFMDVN

T1 sequence (P51784 286-490 limits assumed): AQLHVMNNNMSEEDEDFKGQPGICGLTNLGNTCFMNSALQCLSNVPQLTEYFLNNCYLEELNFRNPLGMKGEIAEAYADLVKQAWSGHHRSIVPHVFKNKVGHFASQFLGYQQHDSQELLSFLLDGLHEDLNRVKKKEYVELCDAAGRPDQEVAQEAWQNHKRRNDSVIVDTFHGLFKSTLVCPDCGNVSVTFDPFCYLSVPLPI
T1 sequence (P51784 735-930 limits assumed): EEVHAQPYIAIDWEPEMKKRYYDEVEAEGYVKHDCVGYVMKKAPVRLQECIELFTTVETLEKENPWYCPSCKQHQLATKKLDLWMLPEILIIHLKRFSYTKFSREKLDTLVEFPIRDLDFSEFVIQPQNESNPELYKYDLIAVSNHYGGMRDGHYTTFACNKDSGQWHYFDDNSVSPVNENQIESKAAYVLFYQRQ

Compound | IC50 (USP11-D1D2) [µM] | SDS-gel deubiquitination of K48- and K63-polyubiquitinated Rsp5 (USP11ΔDUSP) | IC50 (USP11-D1D2; value printed collectively for the analogs) [µM]
Cc1cc2c(s1)Nc1ccccc1N=C2N1CC[N+](C)([O-])CC1 [SRO-01] | ~30 | SRF-01, SRF-02, SRF-03, and SRO-01 also inhibited the activity of USP11ΔDUSP | 
CN1CCc2cc(Cl)c(O)cc2[C@@H](c2ccccc2)C1 [SRF-03] | ~30 | SRF-01, SRF-02, SRF-03, and SRO-01 also inhibited the activity of USP11ΔDUSP | 
Oc1cc2c(cc1O)C(c1ccccc1)CNCC2 (centres unmarked) [SRF-02] | ~30 | SRF-01, SRF-02, SRF-03, and SRO-01 also inhibited the activity of USP11ΔDUSP | 
Cc1cc2c(s1)Nc1ccccc1N=C2N1CCN(C)CC1 [Olanzapine] |  | Fenoldopam and Olanzapine effectively disrupted the ability of USP11ΔDUSP to process both K48 and K63-linked | 
Oc1ccc(C2CNCCc3c2cc(O)c(O)c3Cl)cc1 (centres unmarked) [SRF-01] |  | SRF-01, SRF-02, SRF-03, and SRO-01 also inhibited the activity of USP11ΔDUSP | ~30
Oc1ccc(C2CNCCc3c2cc(O)c(O)c3Cl)cc1 (centres unmarked) [Fenoldopam] | ~30 | Fenoldopam and Olanzapine effectively disrupted the ability of USP11ΔDUSP to process both K48 and K63-linked | 
